The numbers were not newly measured in patent US20130202637A1, “Dietary Supplements Including Ellagitannins and Ellagic Acid” (priority 2012, published 2013), which cites them from elsewhere.

SMILES strings stand for the structures.

`O=c1oc2c(O)c(O)cc3c(=O)oc4c(O)c(O)cc1c4c23` [ellagic acid]: the G-Arrest began with breast cancer and with cervical cancer was 72 h throughout.
